Assay results taken from ChEMBL document CHEMBL1275378, “Exploration of the active site of neuronal nitric oxide synthase by the design and synthesis of pyrrolidinomethyl 2-aminopyridine derivatives” (J Med Chem, 2010).

Columns and labels:
Nitric oxide synthase 3 = target: T1, Nitric oxide synthase 3 (Bos taurus, UniProt P29473); assay: Inhibition of bovine recombinant eNOS
T1 sequence (P29473 whole entry): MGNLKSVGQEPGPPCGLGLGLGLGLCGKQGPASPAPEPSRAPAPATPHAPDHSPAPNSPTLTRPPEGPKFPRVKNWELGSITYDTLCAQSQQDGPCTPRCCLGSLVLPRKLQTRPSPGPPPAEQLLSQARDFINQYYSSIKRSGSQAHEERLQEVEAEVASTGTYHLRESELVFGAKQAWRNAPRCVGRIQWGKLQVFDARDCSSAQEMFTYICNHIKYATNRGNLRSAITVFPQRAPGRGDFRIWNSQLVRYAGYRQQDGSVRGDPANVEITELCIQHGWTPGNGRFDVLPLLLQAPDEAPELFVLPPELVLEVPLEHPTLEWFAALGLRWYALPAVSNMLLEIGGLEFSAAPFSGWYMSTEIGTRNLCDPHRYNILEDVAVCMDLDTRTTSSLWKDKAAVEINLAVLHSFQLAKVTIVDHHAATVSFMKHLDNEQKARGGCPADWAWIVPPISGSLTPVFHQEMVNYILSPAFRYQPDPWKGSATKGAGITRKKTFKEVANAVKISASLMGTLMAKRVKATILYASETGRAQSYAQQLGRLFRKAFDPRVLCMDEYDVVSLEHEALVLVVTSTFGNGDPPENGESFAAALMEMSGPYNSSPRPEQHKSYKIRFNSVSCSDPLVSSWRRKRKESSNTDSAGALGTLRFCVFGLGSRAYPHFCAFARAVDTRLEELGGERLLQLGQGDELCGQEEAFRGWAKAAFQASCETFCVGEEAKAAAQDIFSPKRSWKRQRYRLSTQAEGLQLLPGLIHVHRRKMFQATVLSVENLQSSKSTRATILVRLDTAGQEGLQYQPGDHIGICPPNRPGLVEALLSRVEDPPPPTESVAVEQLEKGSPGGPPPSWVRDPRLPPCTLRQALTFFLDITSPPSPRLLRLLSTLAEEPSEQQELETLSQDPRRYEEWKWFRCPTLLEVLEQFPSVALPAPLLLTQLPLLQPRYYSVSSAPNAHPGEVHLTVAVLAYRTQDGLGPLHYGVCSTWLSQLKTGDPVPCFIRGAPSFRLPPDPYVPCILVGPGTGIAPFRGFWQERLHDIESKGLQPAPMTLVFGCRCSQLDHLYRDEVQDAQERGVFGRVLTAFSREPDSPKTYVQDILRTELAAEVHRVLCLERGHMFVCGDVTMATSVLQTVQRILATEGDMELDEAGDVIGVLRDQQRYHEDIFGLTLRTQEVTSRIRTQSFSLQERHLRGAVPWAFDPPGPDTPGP

[1] = Selectivity ratio of IC50 for rat recombinant nNOS to IC50 for bovine recombinant eNOS
[2] = Selectivity ratio of IC50 for rat recombinant nNOS to IC50 for mouse recombinant iNOS

Row | Ki (Nitric oxide synthase 3) [µM] | nNOS selectivity over eNOS (eNOS IC50 / nNOS IC50) [1] | Ratio [2] | SMILES
1 | 849 | – | – | NCCN1C[C@H](Cc2cccc(N)n2)[C@H](NCCCO)C1 (racemic)
2 | 2910 | 201 | 11.5 | Nc1cccc(C[C@H]2CNC[C@@H]2NCCNCc2ccccc2)n1 (racemic)
3 | 625 | 49 | 18 | Nc1cccc(C[C@H]2CNC[C@@H]2N[C@H]2CCNC2)n1 (racemic)
4 | 460 | 22 | 12 | Nc1cccc(C[C@H]2CNC[C@@H]2N[C@@H]2CCNC2)n1 (racemic)
5 | 58.1 | – | – | Cc1cc(N)nc(C[C@H]2CNC[C@H]2N(C)CCNCc2ccc(Cl)cc2)c1 (racemic)
6 | 61.2 | – | – | Cc1cc(N)nc(C[C@H]2CNC[C@@H]2NCCNCc2ccc(C(F)(F)F)cc2)c1 (racemic)
7 | 171 | 7 | 12 | Nc1cccc(C[C@H]2CNC[C@@H]2N[C@@H]2CCN(Cc3ccccc3)C2)n1 (racemic)
8 | 76.1 | 158 | 92 | Cc1cc(N)nc(C[C@H]2CNC[C@@H]2NCCNCc2ccc(Cl)cc2Cl)c1 (racemic)
9 | – | – | 9 | Cc1cc(N)nc(C[C@H]2CNC[C@@H]2NCCN)c1 (racemic; form 1) [listing 1 of 2 here]
10 | 1450 | 71 | 20 | Nc1cccc(C[C@H]2CNC[C@@H]2NC[C@@H](N)Cc2ccccc2)n1 (racemic)
11 | – | – | 8 | Cc1cc(N)nc(C[C@H]2CNC[C@@H]2NCCCO)c1 (racemic)
12 | 109 | 147 | 79 | Cc1cc(N)nc(C[C@H]2CNC[C@@H]2NCCNCc2cccc(C(F)(F)F)c2)c1 (racemic)
13 | 63.2 | 153 | 57 | Cc1cc(N)nc(C[C@H]2CNC[C@@H]2NCCNCc2ccc(Cl)c(Cl)c2)c1 (racemic)
14 | 242 | 15 | 20 | CN(C)CCN[C@H]1CNC[C@@H]1Cc1cccc(N)n1 (racemic)
15 | – | – | 52.5 | Cc1cc(N)nc(C[C@H]2CNC[C@@H]2NCCN)c1 (racemic; form 2) [listing 1 of 2 here]
16 | 341 | 49 | 4 | Nc1cccc(C[C@H]2CNC[C@@H]2O)n1 (racemic)
17 | 122 | 2.5 | 13 | NCCN1C[C@H](Cc2cccc(N)n2)[C@H](NCCCc2ccccc2)C1 (racemic)
18 | 44.1 | 370 | 190 | Cc1cc(N)nc(C[C@H]2CNC[C@@H]2NCCNCCc2ccc(F)cc2)c1 (racemic)
19 | 263 | – | – | Cc1cc(N)nc(C[C@H]2CNC[C@@H]2NCCN)c1 (racemic; form 2) [listing 2 of 2 here]
20 | 202 | 306 | 127 | Cc1cccc(CNCCN[C@H]2CNC[C@@H]2Cc2cc(C)cc(N)n2)c1 (racemic)
21 | 16.5 | 28 | 35 | Cc1cc(N)nc(C[C@H]2CNC[C@@H]2NC[C@H](C)NCc2ccc(Cl)cc2)c1 (racemic)
22 | 173 | 43 | 110 | NCCN1C[C@H](Cc2cccc(N)n2)[C@@H](NCCCc2ccccc2)C1 (racemic)
23 | 85.2 | 6 | 11 | Cc1cc(N)nc(C[C@H]2CNC[C@@H]2NCCCc2ccccc2)c1 (racemic)
24 | 109 | 6 | 12 | Nc1cccc(C[C@H]2CNC[C@@H]2N[C@H]2CCN(Cc3ccccc3)C2)n1 (racemic)
25 | 1450 | 105 | 21.5 | Nc1cccc(C[C@H]2CNC[C@@H]2NC[C@H](N)Cc2ccccc2)n1 (racemic)
26 | 866 | – | – | Cc1cc(N)nc(C[C@H]2CNC[C@@H]2NCCN)c1 (racemic; form 1) [listing 2 of 2 here]
27 | 1700 | – | – | NCCN1C[C@H](Cc2cccc(N)n2)[C@@H](NCCCO)C1 (racemic)
28 | 78.8 | 90.5 | 31 | Cc1cc(N)nc(C[C@H]2CNC[C@@H]2NCCNCc2ccc(F)cc2)c1 (racemic)
